Data published in US20250018046A1, “COMPOUNDS FOR TARGETING DEGRADATION OF IRAK4 PROTEINS” (BIOGEN MA INC, priority 2021, published 2025).

target: T1, IRAK4 (Homo sapiens, UniProt Q9NWZ3); assay: IRAK4 degradation assay using the HiBiT Method; type: cell-based; conditions: 293T cells expressing HiBiT-tagged IRAK4; 6-hour incubation; Nano-Glo HiBiT Lytic Assay luminescence
T1 construct: knocking-in a HiBiT fusion tag into the C-terminal of the IRAK4 gene in 293T cells; host or cells: 293T cells, knock-in of HiBiT at the endogenous IRAK4 locus
T1 sequence (Q9NWZ3 1-460): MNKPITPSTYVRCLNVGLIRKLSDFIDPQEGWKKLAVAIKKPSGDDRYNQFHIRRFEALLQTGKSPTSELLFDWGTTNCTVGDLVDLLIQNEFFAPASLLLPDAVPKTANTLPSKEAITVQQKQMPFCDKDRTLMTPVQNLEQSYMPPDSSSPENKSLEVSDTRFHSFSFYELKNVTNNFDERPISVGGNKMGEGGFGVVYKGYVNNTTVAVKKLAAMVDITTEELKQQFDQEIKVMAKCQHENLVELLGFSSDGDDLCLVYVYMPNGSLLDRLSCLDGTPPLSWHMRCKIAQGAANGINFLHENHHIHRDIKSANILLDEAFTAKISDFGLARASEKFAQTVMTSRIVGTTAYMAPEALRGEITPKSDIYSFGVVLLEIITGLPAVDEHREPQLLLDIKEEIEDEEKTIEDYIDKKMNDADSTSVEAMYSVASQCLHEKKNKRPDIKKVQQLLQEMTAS
Procedure: Selected compounds were tested in an IRAK4 degradation assay using the HiBiT Method.
Phenol red-free Dulbecco's modified Eagle medium (DMEM) and fetal bovine serum (FBS) were purchased from Gibco (Grand Island, NY, USA). The Nano-Glo© HiBiT Lytic Assay System was purchased from Promega (Madison, WI, USA). Cell culture flasks and 384-well microplates were acquired from VWR (Radnor, PA, USA). The 293T cell line was engineered by knocking-in a HiBiT fusion tag into the C-terminal of the IRAK4 gene in 293T cells (Synthego, Redwood City, CA, USA).
IRAK4 degradation was measured via the quantification of luminescent signals using the Nano-Glo© HiBiT Lytic Assay kit. Test compounds were added to 384-well plates in duplicate using an 11-point half-log dilution series, with the highest dose set at 10 mM. 293T cells expressing HiBiT-tagged IRAK4 were then added into 384-well plates at a cell density of 10,000 cells per well. The plates were kept at 37° C. with 5% CO2 for 6 hours. Cells that were treated only with DMSO served as the negative control; wells that contained only assay media served as the background control. After the 6-hour incubation, Nano-Glo® HiBiT Lytic Assay reagents were added to the cells. Luminescence was acquired using an EnVision® Multilabel Reader (PerkinElmer, Santa Clara, CA, USA).

SMILES | DC50
CC(C)Oc1cc2nc(C3CCN(CC(=O)N4CCN(CCc5ccc(NC6CCC(=O)NC6=O)cc5)CC4)CC3)cn2cc1NC(=O)c1cccc(C(F)(F)F)n1 (stereo not drawn) [Example 19, N-[2-[1-[2-[4-[2-[4-[(2,6-dioxo-3-piperidyl)amino]phenyl]ethyl]piperazin-1-yl]-2-oxo-ethyl]-4-piperidyl]-7-isopropoxy-imidazo[1,2-a]pyridin-6-yl]-6-(trifluoromethyl) pyridine-2-carboxamide] | 10 to 100 nM
CC(C)Oc1cc2nc(C3CCN(CC(=O)N4CCC(c5ccc(OC6CCC(=O)NC6=O)cc5)CC4)CC3)cn2cc1NC(=O)c1cccc(C(F)(F)F)n1 (stereo not drawn) [Example 21, N-[2-[1-[2-[4-[4-[(2,6-dioxo-3-piperidyl)oxy]phenyl]-1-piperidyl]-2-oxo-ethyl]-4-piperidyl]-7-isopropoxy-imidazo[1,2-a]pyridin-6-yl]-6-(trifluoromethyl)pyridine-2-carboxamide] | 10 to 100 nM
CC(C)Oc1cc2nc(C3CCN(CC(=O)N4CCC(c5ccc(NC6CCC(=O)NC6=O)cc5)CC4)CC3)cn2cc1NC(=O)c1cccc(C(F)(F)F)n1 (stereo not drawn) [Example 23, N-[2-[1-[2-[4-[4-[(2,6-dioxo-3-piperidyl)amino]phenyl]-1-piperidyl]-2-oxo-ethyl]-4-piperidyl]-7-isopropoxy-imidazo[1,2-a]pyridin-6-yl]-6-(trifluoromethyl)pyridine-2-carboxamide] | 10 to 100 nM
CC(C)Oc1cc2nc(C3CCN(CC(=O)N4CCC(c5ccc(NC6CCC(=O)NC6=O)cc5F)CC4)CC3)cn2cc1NC(=O)c1cccc(C(F)(F)F)n1 (stereo not drawn) [Example 24, N-[2-[1-[2-[4-[4-[(2,6-dioxo-3-piperidyl)amino]-2-fluoro-phenyl]-1-piperidyl]-2-oxo-ethyl]-4-piperidyl]-7-isopropoxy-imidazo[1,2-a]pyridin-6-yl]-6-(trifluoromethyl)pyridine-2-carboxamide] | 10 to 100 nM
CC(C)Oc1cc2nc(C3CCN(CC(=O)N4CCN(c5ccc6c(N7CCC(=O)NC7=O)nn(C)c6c5)CC4)CC3)cn2cc1NC(=O)c1cccc(C(F)(F)F)n1 [Example 26, N-[2-[1-[2-[4-[3-(2,4-dioxohexahydropyrimidin-1-yl)-1-methyl-indazol-6-yl]piperazin-1-yl]-2-oxo-ethyl]-4-piperidyl]-7-isopropoxy-imidazo[1,2-a]pyridin-6-yl]-6-(trifluoromethyl)pyridine-2-carboxamide] | 100 to 500 nM
CC(C)Oc1cc2nc(C3CCN(CC(=O)N4CCN(c5ccc(OC6CCC(=O)NC6=O)cc5)CC4)CC3)cn2cc1NC(=O)c1cccc(C(F)(F)F)n1 (stereo not drawn) [Example 28, N-[2-[1-[2-[4-[4-[(2,6-dioxo-3-piperidyl)oxy]phenyl]piperazin-1-yl]-2-oxo-ethyl]-4-piperidyl]-7-isopropoxy-imidazo[1,2-a]pyridin-6-yl]-6-(trifluoromethyl)pyridine-2-carboxamide] | 10 to 100 nM
CC(C)Oc1cc2nc(C3CCN(CCC(=O)N4CCC(c5ccc(NC6CCC(=O)NC6=O)cc5F)CC4)CC3)cn2cc1NC(=O)c1cccc(C(F)(F)F)n1 (stereo not drawn) [Example 31, N-[2-[1-[3-[4-[4-[(2,6-dioxo-3-piperidyl)amino]-2-fluoro-phenyl]-1-piperidyl]-3-oxo-propyl]-4-piperidyl]-7-isopropoxy-imidazo[1,2-a]pyridin-6-yl]-6-(trifluoromethyl)pyridine-2-carboxamide] | 100 to 500 nM
CC(C)Oc1cc2nc(C3CCN(CCC(=O)N4CCC(c5ccc(C6CCC(=O)NC6=O)cc5)CC4)CC3)cn2cc1NC(=O)c1cccc(C(F)(F)F)n1 (stereo not drawn) [Example 32, N-[2-[1-[3-[4-[4-(2,6-dioxo-3-piperidyl)phenyl]-1-piperidyl]-3-oxo-propyl]-4-piperidyl]-7-isopropoxy-imidazo[1,2-a]pyridin-6-yl]-6-(trifluoromethyl)pyridine-2-carboxamide] | 100 to 500 nM
CC(C)Oc1cc2nc(C3CCN(CCC(=O)N4CCN(c5ccc(OC6CCC(=O)NC6=O)cc5)CC4)CC3)cn2cc1NC(=O)c1cccc(C(F)(F)F)n1 (stereo not drawn) [Example 33, N-[2-[1-[3-[4-[4-[(2,6-dioxo-3-piperidyl)oxy]phenyl]piperazin-1-yl]-3-oxo-propyl]-4-piperidyl]-7-isopropoxy-imidazo[1,2-a]pyridin-6-yl]-6-(trifluoromethyl)pyridine-2-carboxamide] | 100 to 500 nM
CC(C)Oc1cc2nc(C3CN(CCC(=O)N4CCC(c5ccc(NC6CCC(=O)NC6=O)cc5)CC4)C3)cn2cc1NC(=O)c1cccc(C(F)(F)F)n1 (stereo not drawn) [Example 34, N-[2-[1-[3-[4-[4-[(2,6-dioxo-3-piperidyl)amino]phenyl]-1-piperidyl]-3-oxo-propyl]azetidin-3-yl]-7-isopropoxy-imidazo[1,2-a]pyridin-6-yl]-6-(trifluoromethyl)pyridine-2-carboxamide] | 100 to 500 nM
CC(C)Oc1cc2nc(C3CCC(CN4CCC(c5ccc(C6CCC(=O)NC6=O)cc5)CC4)CC3)cn2cc1NC(=O)c1cccc(C(F)(F)F)n1 (stereo not drawn) [Example 35, N-[2-[4-[[4-[4-(2,6-dioxo-3-piperidyl)phenyl]-1-piperidyl]methyl]cyclohexyl]-7-isopropoxy-imidazo[1,2-a]pyridin-6-yl]-6-(trifluoromethyl)pyridine-2-carboxamide] | 100 to 500 nM
CC(C)Oc1cc2nc([C@H]3CC[C@H](CN(C)C4CCN(c5ccc(NC6CCC(=O)NC6=O)cc5)CC4)CC3)cn2cc1NC(=O)c1cccc(C(F)(F)F)n1 (stereo partly drawn) [Example 36, N-[2-[4-[[[1-[4-[(2,6-dioxo-3-piperidyl)amino]phenyl]-4-piperidyl]-methyl-amino]methyl]cyclohexyl]-7-isopropoxy-imidazo[1,2-a]pyridin-6-yl]-6-(trifluoromethyl)pyridine-2-carboxamide] | 10 to 100 nM

The next lines start with the values.

DC50 | SMILES
100 to 500 nM | CC(C)Oc1cc2nc(C3CCN(CC(=O)N4CCN(Cc5ccc(NC6CCC(=O)NC6=O)cc5)CC4)CC3)cn2cc1NC(=O)c1cccc(C(F)(F)F)n1 (stereo not drawn) [Example 20, N-[2-[1-[2-[4-[[4-[(2,6-dioxo-3-piperidyl)amino]phenyl]methyl]piperazin-1-yl]-2-oxo-ethyl]-4-piperidyl]-7-isopropoxy-imidazo[1,2-a]pyridin-6-yl]-6-(trifluoromethyl) pyridine-2-carboxamide]
10 to 100 nM | CC(C)Oc1cc2nc(C3CCN(CC(=O)N4CCN(c5ccc(C6CCC(=O)NC6=O)cc5)CC4)CC3)cn2cc1NC(=O)c1cccc(C(F)(F)F)n1 (stereo not drawn) [Example 22, N-[2-[1-[2-[4-[4-(2,6-dioxo-3-piperidyl)phenyl]piperazin-1-yl]-2-oxo-ethyl]-4-piperidyl]-7-isopropoxy-imidazo[1,2-a]pyridin-6-yl]-6-(trifluoromethyl)pyridine-2-carboxamide]
100 to 500 nM | CC(C)Oc1cc2nc(C3CCN(CC(=O)N4CCC(c5ccc(CN6CCC(=O)NC6=O)cc5)CC4)CC3)cn2cc1NC(=O)c1cccc(C(F)(F)F)n1 [Example 25, N-[2-[1-[2-[4-[4-[(2,4-dioxohexahydropyrimidin-1-yl)methyl]phenyl]-1-piperidyl]-2-oxo-ethyl]-4-piperidyl]-7-isopropoxy-imidazo[1,2-a]pyridin-6-yl]-6-(trifluoromethyl) pyridine-2-carboxamide]
100 to 500 nM | CC(C)Oc1cc2nc(C3CCN(CC(=O)N4CCN(c5ccc(NC6CCC(=O)NC6=O)cc5)CC4)CC3)cn2cc1NC(=O)c1cccc(C(F)(F)F)n1 (stereo not drawn) [Example 27, N-[2-[1-[2-[4-[4-[(2,6-dioxo-3-piperidyl)amino]phenyl]piperazin-1-yl]-2-oxo-ethyl]-4-piperidyl]-7-isopropoxy-imidazo[1,2-a]pyridin-6-yl]-6-(trifluoromethyl)pyridine-2-carboxamide]
10 to 100 nM | CC(C)Oc1cc2nc(C3CCN(CC(=O)N4CCC(c5ccc(C6CCC(=O)NC6=O)cc5)CC4)CC3)cn2cc1NC(=O)c1cccc(C(F)(F)F)n1 (stereo not drawn) [Example 29, N-[2-[1-[2-[4-[4-(2,6-dioxo-3-piperidyl)phenyl]-1-piperidyl]-2-oxo-ethyl]-4-piperidyl]-7-isopropoxy-imidazo[1,2-a]pyridin-6-yl]-6-(trifluoromethyl)pyridine-2-carboxamide]
100 to 500 nM | CC(C)Oc1cc2nc(C3CCN(CCC(=O)N4CCC(c5ccc(NC6CCC(=O)NC6=O)cc5)CC4)CC3)cn2cc1NC(=O)c1cccc(C(F)(F)F)n1 (stereo not drawn) [Example 30, N-[2-[1-[3-[4-[4-[(2,6-dioxo-3-piperidyl)amino]phenyl]-1-piperidyl]-3-oxo-propyl]-4-piperidyl]-7-isopropoxy-imidazo[1,2-a]pyridin-6-yl]-6-(trifluoromethyl)pyridine-2-carboxamide]
